The subject of this assay is aged-impaired (AI) rats. The assay is described as follows: Radial Arm Maze (RAM) task, spatial memory retention of aged-impaired rats. The assay is classed as in vivo, Long-Evans rats. Conditions: two-hour delay RAM. How it is done: FIG. 1 depicts the effects of administering levetiracetam on the spatial memory retention of ten aged-impaired rats (AI) in an eight-arm Radial Arm Maze (RAM) test. Six treatment conditions are employed: vehicle control, levetiracetam (1.25 mg/kg/day), levetiracetam (2.5 mg/kg/day), levetiracetam (5 mg/kg/day), levetiracetam (10 mg/kg/day) and levetiracetam (20 mg/kg/day). In the RAM task used, there is a one-hour delay between presentation of a subset of arms (5 arms available and 3 arms blocked) and completion of the eight-arm win-shift task (eight arms available). Rats are pre-treated 30-40 minutes before daily trials with a one-time drug/control treatment. The number of errors made by the rats during the retention phase is used as a measure of spatial memory retention. Errors are defined as instances when rats enter an arm from which food has already been retrieved in the pre-delay component of the trial or when rats re-visit an arm in the post-delay session that had already been visited. Paired t-tests are used to compare the number of errors between different doses of levetiracetam and vehicle control.
FIG. 2 depicts the effects of administering donepezil only and administering a combination of donepezil and levetiracetam on the spatial memory retention of eight aged-impaired rats (AI) in an eight-arm Radial Arm Maze (RAM) test. Four treatment conditions are employed: vehicle control, donepezil only (1 mg/kg/day), donepezil (2 mg/kg/day), and a combination of donepezil (1 mg/kg/day) and levetiracetam (2.5 mg/kg/day). In the RAM task used, there is a two-hour delay between presentation of a subset of arms (5 arms available and 3 arms blocked) and completion of the eight-arm win-shift task (eight arms available). Rats are pre-treated 30-40 minutes before daily trials with a one-time drug/control treatment. The number of errors made by the rats during the retention phase is used as a measure of spatial memory retention. Errors are defined as instances when rats enter an arm from which food has already been retrieved in the pre-delay component of the trial or when rats re-visit an arm in the post-delay session that have already been visited. Paired t-tests are used to compare the number of errors between different doses of drug treatment and vehicle control.
Aged, male Long-Evans rats were obtained at 8 to 9 months of age from Charles River Laboratories (Raleigh, N.C.) and housed in a vivarium until 24 to 26 months of age. All rats were individually housed at 25° C. and maintained on a 12 h light/dark cycle. Food and water were provided ad libitum unless noted otherwise. The rats were examined for health and pathogen-free status throughout the experiments, as well as necropsies at the time of killing.
All rats were screened in a standardized assessment of spatial cognition. This background assessment used the above-described well-established MWM protocol. […] The selected AI rats were tested for their memory of new spatial information in a Radial Arm Maze (RAM) task, under different drug/control treatment conditions: vehicle control, donepezil only, levetiracetam only, and a combination of donepezil and levetiracetam. The RAM task also extended the behavioral assessment to spatial memory using appetitive motivation. We used a protocol that allowed within-subject assessment across drugs at different doses and in combinations (Koh et al., Neuropsychopharmacology, epub. 1-10, (2009)).
The radial maze consisted of eight arms projecting from each side of an octagonal center platform, with food well located at the distal end of each arm. Plexiglasm blocks could be positioned to prevent entry into any arm. Extra-maze cues were provided in the room surrounding the maze and illumination was provided by an overhead light.

Data on 1 compound can be found in patent US20220265685A1, “METHODS AND COMPOSITIONS FOR IMPROVING COGNITIVE FUNCTION” (priority 2010, published 2022).

Consider `COc1cc2c(cc1OC)C(=O)C(CC1CCN(Cc3ccccc3)CC1)C2` (stereo not shown) [donepezil, 2,3-dihydro-5,6-dimethoxy-2-((1-(phenylmethyl)-4-piperidinyl)methyl)-1H-inden-1-one], for which the “memory performance relative to vehicle control treatment” value reads like this: (donepezil 1 mg/kg/day alone, t(7)=0, p=1.00) “does not significantly improve memory performance”; (donepezil 2 mg/kg/day alone, t(7)=0.91, p=0.930) “does not significantly improve memory performance”. Under “donepezil 1 mg/kg/day i.p., AI rats n=8, vehicle control 2.88±0.67”, the “average no. of errors ± standard error of the mean (SEM), retention test” value came to 2.88±0.46. Also, the “average no. of errors ± SEM, retention test” value (donepezil 2 mg/kg/day i.p., AI rats n=8, vehicle control 2.88±0.67) was found to be 2.81±0.43.
